Source: patent US11696903B2, “Compounds and methods for scavenging dicarbonyl electrophiles” (VANDERBILT UNIVERSITY, priority 2019, dated 2023)

Experiments:
[1] = Reaction rate of scavengers with dicarbonyl electrophiles / LG relative to lysine; conditions: faster than lysine
Description: Under conditions such as inflammation and/or accumulated mutations, epithelial cells and adjacent immune cells express genes encoding enzymes involved in carcinogenesis, such as prostaglandin-endoperoxide synthase (PGHS2; COX2), NADPH oxidases, and spermine oxidase. The products of these enzymes (prostaglandins, O2D, and H2O2 plus 3-aminopropanal) lead to formation of dicarbonyl electrophiles: levuglandins (LGs), malondialdehyde (MDA), 4-oxo-nonenal (4-O NE), and acrolein. Electrophiles may lead to immune dysfunction and neoplastic risk by forming adducts with proteins and DNA11-15. However, the role of these reactive aldehydes in colon carcinogenesis is previously unknown. The present inventors have discovered that the level of LG-protein adducts is increased in the colon tissues of i) human ulcerative colitis (UC), colitis-associated carcinogenesis (CAC), and CRC; ii) mice treated with azoxymethane-dextran sulfate sodium (AOM-DSS), a model of CAC; and iii) transgenic mice with a tamoxifen-inducible disruption of Apc using the colon-specific, caudal type homeobox 2 (CDX2) Cre (CDX2P-CreERT2;Apcff), which recapitulates sporadic/genetically-driven CRC. […]

lysyl-LG adducts = experiment: Lysyl-LG adducts in gastric tissues of H. pylori-infected mice (LC/ESI/MS/MS); assay type: in vivo; conditions: H. pylori infected mice treated for 8 weeks
Procedure: FIGS. 15A, 15B, and 15C are graphs showing C57BL/6 (A) or INS-GAS mice (B) were infected for 8 weeks with H. pylori PMSS1. Lysyl-LG adducts were measured in the gastric tissues by LC/ESI/MS/MS. *P<0.05. (C) Lysyl-LG adducts concentration was determined in AGS cells infected (plain bars) or not (open bars) with H. pylori PMSS1 for 24 h, in the presence or absence of EtSA. *P<0.05 vs. uninfected cells. § P<0.05 vs. infected cells without EtSA.
FIG. 17 is a graph showing reduction in the concentration of lysyl-levuglandin adducts in the stomachs of H. pylori infected mice treated with 2-hydroxybenzylamine for 8 weeks.
As discussed further in the Examples, the human gastric epithelial cell line AGS was infected with Hp PMSS1±10 mM EtSA. FVB/N insulin-gastrin (INS-GAS) mice and Mongolian gerbils were infected for 8 wk with Hp PMSS1 and 7.13, respectively; EtSA (0.75% in water) was given to animals beginning one wk post-infection. Lys-LG adducts, a marker of electrophile reactions, and EtSA were quantified by LC/EST/MS/MS. Histology was analyzed on H&E staining. DNA damage was evaluated by pH2AX staining. Hp colonization was quantified by culture. Mucosal immune responses were determined by RNA profiling and by Luminex assay. Mice were imaged using PET/CT with ^18F-FDG (inflammation marker) and ^18F—NaF (tumor marker). […]

oxidative damage = conditions: mice; cited from earlier work
[2] = system: LG-histone adducts in RAW264.7 cells; experiment: LG-lysyl adduct formation on histones in RAW264.7 cells (LC/ESI/MS/MS); assay type: cell-based, mouse
Procedure: (§1) FIGS. 11A, 11B, 11C, 11D, 11E, and 11F are a series of graphs showing that LG-lysine adducts of histones are found in cells and tissue, dependent on COX-2 activity. RAW264.7 mouse macrophage (A) and A549 human lung carcinoma (C) cells were stimulated to express COX-2, then given 20 μM arachidonic acid (AA) or vehicle. A subgroup of cells was preincubated 45 min with 50 μM indomethacin. As a measure of COX activity, PGE2 was determined by GC/MS from cell media prior to lysis (B and D). Nuclei were isolated, and histones were extracted and digested to individual amino acids prior to LC/EST/MS/MS analysis. *, p<0.05; ***, p<0.001 by ANOVA followed by Tukey's post-test (n≥5). (E). Histones were extracted from nuclei of rat liver, and analyzed as above for LG-lactam adduct. COX-2 protein was analyzed by Western blotting and plotted against lactam adduct levels. Each point corresponds to 1 liver, and shown is the line of regression (r^2=0.7237). Pearson r=0.8507; two-tailed p=0.0152. (F) LC-MS chromatograph of histones isolated from a rat liver with relatively high COX-2 expression (COX-2 band intensity of 117 arbitrary units).
(A). Scavengers were screened in RAW264.7 cells for the ability to decrease LG adduct formation on histones. Scavengers used were glucosamine (GA), 3-methoxysalicylamine (3-MoSA), pentylpyridoxamine (PPM), and 5-ethylsalicylamine (EtSA). Cells were stimulated to express COX-2, pretreated 45 min. with 500 μM scavenger or vehicle (H2O), and given 20 μM AA for 1 h before lysing and extracting histones. Histone proteins were analyzed by LC/ESI/MS/MS for LG-lysyl lactam adduct, n=2. (B) Stimulated A549 cells were pretreated with 30, 300, or 1000 μM EtSA prior to 1 h with 20 μM AA, and histones analyzed for LG-lysyl adduct. *, p<0.05 by one-way ANOVA followed by Dunnett's multiple comparisons post-test (n=3-5). (C). A549 cells were stimulated, pretreated 45 min. with 1000 μM EtSA or H2O vehicle, and given 20 μM AA for 1 h. Media was analyzed by GC/MS for PGE2 (n=3). There was no effect on PGE2 production at lower doses of EtSA (data not shown).
To stimulate COX-2 expression, A549 or RAW264.7 cells were treated overnight with 5 ng/mL IL-1B (A549) or 10 μg/mL LPS and 10 U/mL IFNγ (RAW264.7) in serum-free medium. When indicated, cells were pretreated with indomethacin, aldehyde scavengers (glucosamine, 3-MoSA, PPM or EtSA), or vehicle (ethanol for indomethacin, H2O for scavengers) for 45 min, and then given 20 μM arachidonic acid (AA) or DMSO vehicle for 1 h before lysing.
Cultured cells were lysed in hypotonic buffer (10 mM Tris/10 mM NaCl/3 mM MgCl2) containing 1 mM pyridoxamine and 100 μM indomethacin to prevent the artifactual formation of LGE2 during the lytic process. […] Protein concentration was determined using the method of Bradford. […]

[3] = system: LG-histone adducts in A549 cells; experiment: LG-lysyl adduct formation on histones in A549 cells (LC/ESI/MS/MS); assay type: cell-based, human; conditions: COX-2-stimulated A549, 20 μM AA, 50 μM indomethacin preincubated 45 min
Procedure: as §1, with “(F) LC-MS chromatograph of histones isolated from a rat liver with relatively high COX-2 expression (COX-2 band intensity of 117 arbitrary units).” left out
(A). […] Histone proteins were analyzed by LC/ESI/MS/MS for LG-lysyl lactam adduct, n=2. (B) Stimulated A549 cells were pretreated with 30, 300, or 1000 μM EtSA prior to 1 h with 20 μM AA, and histones analyzed for LG-lysyl adduct. *, p<0.05 by one-way ANOVA followed by Dunnett's multiple comparisons post-test (n=3-5). […] Media was analyzed by GC/MS for PGE2 (n=3). […]

NCc1ccccc1O [2-HOBA, 2-hydroxybenzylamine]
rate of reaction with dicarbonyl electrophiles [1]: 3 orders of magnitude
concentration of lysyl-levuglandin adducts in the stomachs (lysyl-LG adducts): reduction
oxidative damage in models of hypertension and Alzheimer's disease (oxidative damage): protects mice from oxidative damage

pentylpyridoxamine [reference compound]
LG adduct formation on histones ([2]; stimulated RAW264.7, 500 μM scavenger 45 min, 20 μM AA 1 h): partially inhibited

COc1ccc2c(c1)c(CC(=O)O)c(C)n2C(=O)c1ccc(Cl)cc1 [indomethacin, reference compound]
LG-histone adduct formation ([2]; COX-2-stimulated RAW264.7, 20 μM AA, 50 μM indomethacin preincubated 45 min): blocked
LG-histone adduct formation [3]: blocked
